Earlier results as cited in patent US20230414697A1, “ENHANCED GINGEROLS FOR PATIENTS SUFFERING FROM NAUSEA AND EMESIS” (Aphios Corporation, priority 2020, published 2023).

How the values were obtained:
[1] = 2.0 gm oral ginger, 1.25 mg intravenous droperidol, placebo; 24 hour period following surgery
[2] = post-operative; reported by Bone and colleagues
[3] = ginger 0.5 gm or 1 gm, metochlopramide 10 mg

Row | Structure (SMILES) | differences in frequency or severity of post-operative nausea or frequency of post-operative vomiting [1] | vomiting vs placebo [2] | post-operative nausea vs placebo ([3]; both studies) | effectiveness for post-operative nausea, ginger compared with metochlopramide ([3]; women undergoing gynecologic surgery, two studies) | frequency of emesis, differences between the three arms (ginger, metochlopramide, placebo, post-operative) | patients nauseated (post operative, placebo 41%)
1 | O=C(CCCN1CC=C(n2c(=O)[nH]c3ccccc32)CC1)c1ccc(F)cc1 [droperidol] | no differences | – | – | – | – | –
2 | CCN(CC)CCNC(=O)c1cc(Cl)c(N)cc1OC [metochlopramide] | – | less vomiting | significantly more effective than placebo | equal effectiveness | no significant differences | placebo, 27%
